Laboratory results from patent publication US20140370510A1, “MODULATION OF PEPTIDOME USING HISTONE DEACETYLASE INHIBITOR” (University of South Florida (A Florida Non-Profit …, priority 2012, published 2014).

Columns and labels:
Assay type in all cases: cell-based
[1] = system: CLIP occupancy of MHC class II (HLA-DR) on CIITA-4 melanoma cells, WM9 melanoma cells and Raji B cells; experiment: Flow cytometry of surface CLIP and HLA-DR (CLIP/HLA-DR ratio) after HDACi treatment; details: 5 μM Entinostat or 3 μM Vorinostat, 40 hours, vs DMSO
Protocol: To determine whether HDACi's could affect anti-tumor immunity, major histocompatibility (MHC) class II positive melanoma cells were treated with HDACi's and assayed for potential alterations in the binding of MHC class II to antigenic peptides. More specifically, melanoma cells were treated with Entinostat or Vorinostat, two HDACi's currently used to treat patients. The CIITA-4 melanoma cells were previously transformed with an expression vector for the MHC class II transactivator, CIITA, which leads to constitutive MHC class II expression. The WM9 melanoma cells have naturally occurring CIITA and MHC class II expression. Raji B cells also constitutively express both CIITA and MHC class II.
Cells were cultured in RPMI (antibiotic supplements and 10% fetal calf serum) and treated with either DMSO, 5 μM Entinostat, 3 μM Vorinostat, or 400 units/ml IFN-γ. […] Surface expression of HLA-DR, the most significant MHC class II protein, was detected using flow cytometry. Surface expression of the class II associated invariant chain peptide (CLIP) was also detected using flow cytometry. […]
Samples were analyzed on a BD LSR II flow cytometer (San Jose, Calif.) equipped with 405 nm, 488 nm and 633 nm lasers using BD FacsDiva 6.1.3 software. FITC, PE and DAPI dyes were detected using 530/30, 575/26 and 450/50 band pass filters, respectively. […]

[2] = system: cathepsin L1 mRNA in WM9 melanoma cells; experiment: RT-PCR assay of cathepsin L1 mRNA in WM9 melanoma cells; details: normalized to GAPDH mRNA and DMSO
[3] = system: cathepsin L1 mRNA in Raji B-cells; experiment: RT-PCR assay of cathepsin L1 mRNA in Raji B-cells; details: normalized to GAPDH mRNA and DMSO, 40 hours
Protocol: (§1) An RT-PCR assay of cathepsin L1 mRNA was performed in treated Raji B-cells. More specifically, RNA was extracted from the DMSO, Entinostat, Vorinostat, and IFN-γ treated Raji B-cells described in Example 1 using an RNeasy Mini Kit< Qiagen cat #74106. RNA quality was verified using a bioanalyzer (Agilent). Reverse transcription of total RNA (1 μg) to cDNA was done with a High Capacity RNA-to-cDNA Master Mix (Applied Biosystems part of Life Technologies, Foster City, Calif., catalog number 4390777). In a 0.2 ml PCR tube, 5×Complete Master Mix (4.0 μl) and nuclease-free H20 were mixed with 1 μg RNA for a total reaction volume of 20 μL. The sample was incubated at 25° C. for 5 minutes, 42° C. for 30 minutes and then 85° C. for 5 minutes in a DNA Engine Peltier thermal cycler (Bio-Rad). qPCR target related: cathepsin L1, CTSL1, RefSeq-NM13 001912.4, amplicon length-85 bp, Assay ID Details-Hs00377632_ml; Cathepsin S, CTSS, RefSeq-NM_004079.4, amplicon length-70 bp, Assay ID Details Hs00175407_ml; GAPDH-glyceraldehyde-3-phosphate dehydrogenase, Gapdh, RefSeq-NM_00246.3, amplicon length-58 bp, Assay ID Details-Hs03929097_gl.
(§2) All primers and probes were from Applied Biosystems Assay-on-Demand. […] The GAPDH was used as an endogenous control for relative qPCR quantification. […]

[4] = system: Cathepsin L1; experiment: Cathepsin L1 antibody (ctsl1) staining intensity, bright field microscopy; details: 5 μM Entinostat vs DMSO; p-value <0.0004
Protocol: In FIG. 6, samples were viewed with a Leica DMLB upright bright field microscope and a 20×/0.5NA HC PL fluortar objective (Leica Microsystems GmbH, Wetzlar, Germany). Transmitted bright light was used without contrasting methods. Gain, offset, and other acquisition settings were identical for all samples within each group. The number of nuclei was determined with auto-threshold segmentation on the cell morphology. The nuclei segmentation was further refined by size and shape of the objects created from the initial segmentation. ImagePro Plus v6.1 (Media Cybernetics, Bethesda, Md.) software was then used to determine the ctsl1 staining intensity (ctsl1 is cathepsin L1 antibody). Positive cells were established as >20DR over background for each 8bit image (0-255DR). The number of pixels over this threshold per cell was used to determine the differences between the Entinostat and DMSO groups. Each image and analysis was blinded and completed in triplicate (p-value <0.0004).

[5] = system: cathepsin S mRNA; experiment: RT-PCR assay of cathepsin S mRNA; details: normalized to GAPDH mRNA and DMSO
Protocol: as §1, §2

Nc1ccccc1NC(=O)c1ccc(CNC(=O)OCc2cccnc2)cc1 [Entinostat]
amount of CLIP associated with MHC Class II on the APC surface (CLIP occupancy) [1]: reduction in the amount of CLIP | cathepsin L1 mRNA induction [2]: induces cathepsin L1 mRNA | cathepsin L1 mRNA induction [3]: induces cathepsin L1 mRNA | induction of Cathepsin L1 (ctsl1 staining intensity, FIG. 5) [4]: significant induction | cathepsin S mRNA induction [5]: no effect

O=C(CCCCCCC(=O)Nc1ccccc1)NO [Vorinostat, Suberoylanilide hydroxamic acid]
amount of CLIP associated with MHC Class II on the APC surface (CLIP occupancy) [1]: reduction in the amount of CLIP | cathepsin L1 mRNA induction [2]: no effect | cathepsin L1 mRNA induction [3]: no effect | cathepsin S mRNA induction [5]: no effect
